Data from the CheMixHub ionic liquid set.

Assay: xn = mol fraction of the nth substance listed

CCCCCCCCCCCC[N+](CC)(CC)CC.O=S(=O)([N-]S(=O)(=O)C(F)(F)F)C(F)(F)F + O
101 kPa, x2 = 0.1247
Conditions	viscosity [mPa·s]
293.25 K	157.4
298.05 K	130.7

CCCCCCCCCCCC[N+]1(C)CCCCC1.O=C([O-])c1ccccc1O + O
electrical conductivity [S/m], 100 kPa
Conditions	x1 = 3.55e-06	x1 = 8.89e-06	x1 = 2.712e-05
298.15 K	0.00167	–	0.0079
328.15 K	–	0.0063	–

CCCCCCCC[n+]1ccccc1.F[B-](F)(F)F + O
101.3 kPa
Conditions	viscosity [mPa·s]
288.15 K, x2 = 0	447
288.15 K, x2 = 0.1	289
288.15 K, x2 = 0.184	192.6
288.15 K, x2 = 0.324	121.3
288.15 K, x2 = 0.477	89
288.15 K, x2 = 0.67	50.65
288.15 K, x2 = 0.758	37.8
293.15 K, x2 = 0.1	213
293.15 K, x2 = 0.184	145.6
293.15 K, x2 = 0.324	94.1
298.15 K, x2 = 0.67	32.69
298.15 K, x2 = 0.758	23.24
308.15 K, x2 = 0	134.8
308.15 K, x2 = 0.783	15.11
313.15 K, x2 = 0.562	19.43
313.15 K, x2 = 0.67	18.67
318.15 K, x2 = 0	81.6
318.15 K, x2 = 0.324	32.19
323.15 K, x2 = 0.324	27.26
328.15 K, x2 = 0.1	38.44
328.15 K, x2 = 0.184	30.98
328.15 K, x2 = 0.758	8.61
333.15 K, x2 = 0	45.28
333.15 K, x2 = 0.1	32.1
333.15 K, x2 = 0.184	26.18
333.15 K, x2 = 0.758	7.63
338.15 K, x2 = 0.67	9.23
343.15 K, x2 = 0.324	15.05
343.15 K, x2 = 0.67	7.99
348.15 K, x2 = 0	27.77
348.15 K, x2 = 0.477	10.05

CCCCCC[n+]1ccccc1.O=[N+]([O-])[O-] + O
298.15 K, 101 kPa
Conditions	viscosity [mPa·s]
x1 = 0.0002072	0.9698
x1 = 0.0003855	1.002
x1 = 0.0005691	1.012
x1 = 0.0007311	1.033
x1 = 0.0009416	1.045
x1 = 0.001112	1.058
x1 = 0.001262	1.069
x1 = 0.00145	1.101
x1 = 0.001634	1.107
x1 = 0.001826	1.122
x1 = 0.003609	1.219
x1 = 0.005402	1.312
x1 = 0.007153	1.39
x1 = 0.008806	1.453
x1 = 0.01076	1.515
x1 = 0.01248	1.581
x1 = 0.01427	1.646
x1 = 0.01599	1.702
x1 = 0.01772	1.758

CCCCCn1cc[n+](CCCCC)c1.O=S(=O)([N-]S(=O)(=O)C(F)(F)F)C(F)(F)F + O
100 kPa, x2 = 0.1575
Conditions	viscosity [mPa·s]
313.15 K	35.17
338.15 K	15.44
358.15 K	9.31

CCCC[N+]1(C)CCCCC1.N#C[N-]C#N + O
100 kPa
Conditions	viscosity [mPa·s]
298.15 K, x2 = 0.2122	73
328.15 K, x2 = 0.7349	6.6
333.15 K, x2 = 0.6419	8

CCCC[N+]1(C)CCCCC1.N#C[S-] + O
101 kPa
Conditions	viscosity [mPa·s]
318.15 K, x2 = 0.3741	57.3
328.15 K, x2 = 0.2774	59.4
328.15 K, x2 = 0.3741	37.2
328.15 K, x2 = 0.6302	13.48
338.15 K, x2 = 0.2774	39.6
348.15 K, x2 = 0.5111	11.92
